Laboratory results taken from ChEMBL document CHEMBL3797203, “Plasmin inhibitors with hydrophobic amino acid-based linker between hydantoin moiety and benzimidazole scaffold enhance inhibitory activity” (Bioorg Med Chem Lett, 2016).

Assays:
[1] = biological target: Urokinase-type plasminogen activator (Homo sapiens, UniProt P00749); experiment: Inhibition of human urokinase using Pyr-Gly-Arg-MCA as substrate by fluorescence assay
Plasminogen = Plasminogen (Homo sapiens, UniProt P00747); experiment: Inhibition of human plasmin using Boc-Val-Leu-Lys-MCA as substrate by fluorescence assay
Chain of Plasminogen (P00747 97-580 limits assumed): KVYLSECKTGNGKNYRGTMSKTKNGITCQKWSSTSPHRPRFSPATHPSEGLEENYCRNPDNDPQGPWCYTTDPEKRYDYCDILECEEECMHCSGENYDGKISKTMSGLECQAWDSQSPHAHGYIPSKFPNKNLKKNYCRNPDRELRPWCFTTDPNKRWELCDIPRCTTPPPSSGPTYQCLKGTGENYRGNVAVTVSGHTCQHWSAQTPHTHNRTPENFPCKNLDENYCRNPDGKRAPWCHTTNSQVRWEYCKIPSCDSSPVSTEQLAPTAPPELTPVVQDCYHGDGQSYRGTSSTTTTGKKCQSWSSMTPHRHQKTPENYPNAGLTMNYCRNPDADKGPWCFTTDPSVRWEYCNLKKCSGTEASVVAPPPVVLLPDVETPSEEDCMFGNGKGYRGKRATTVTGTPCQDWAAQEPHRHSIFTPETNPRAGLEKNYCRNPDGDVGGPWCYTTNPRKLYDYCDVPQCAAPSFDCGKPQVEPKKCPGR
Chain of Plasminogen (P00747 581-810 limits assumed): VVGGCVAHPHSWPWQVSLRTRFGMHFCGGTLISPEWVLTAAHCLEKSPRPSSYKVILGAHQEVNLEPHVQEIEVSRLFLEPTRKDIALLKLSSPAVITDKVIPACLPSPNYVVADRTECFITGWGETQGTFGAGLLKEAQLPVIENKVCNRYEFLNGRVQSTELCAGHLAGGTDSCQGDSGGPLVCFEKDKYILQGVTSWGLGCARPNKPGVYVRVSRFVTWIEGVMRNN

Homo sapiens = species on record: Homo sapiens; experiment: Selectivity ratio of IC50 for human urokinase to IC50 for human plasmin

| Structure (SMILES) | IC50 [1] | IC50 (Plasminogen) | Ratio IC50 (Homo sapiens) |
| --- | --- | --- | --- |
| C[C@H](c1nc2ccc(C(=O)N[C@H](C#N)CCCCN)cc2n1C)N1C(=O)CN(c2ccc(F)cc2)C1=O | > 200 µM | 45 µM | – |
| C[C@@H](c1nc2ccc(C(=O)N[C@H](C#N)CCCCN)cc2n1C)N1C(=O)CN(c2ccc(Oc3ccccc3)cc2)C1=O | > 200 µM | 11 µM | – |
| C[C@@H](c1nc2ccc(C(=O)N[C@H](C#N)CCCCN)cc2n1C)N1C(=O)CN(c2ccc(Oc3ccncc3)cc2)C1=O | > 200 µM | 19 µM | – |
| CC[C@@H](C)[C@H](c1nc2ccc(C(=O)N[C@H](C#N)CCCCN)cc2n1C)N1C(=O)CN(c2ccc(Oc3ccccc3)cc2)C1=O | > 200 µM | 6.7 µM | – |
| CC(C)[C@H](c1nc2ccc(C(=O)N[C@H](C#N)CCCCN)cc2n1C)N1C(=O)CN(c2ccc(Oc3ccccc3)cc2)C1=O | > 200 µM | 4.9 µM | 40 |

The remaining lines, values ahead:

| IC50 [1] | IC50 (Plasminogen) | Ratio IC50 (Homo sapiens) | Structure (SMILES) |
| --- | --- | --- | --- |
| > 200 µM | 12 µM | – | C[C@H](c1nc2ccc(C(=O)N[C@H](C#N)CCCCN)cc2n1C)N1C(=O)CN(c2ccc(Oc3ccncc3)cc2)C1=O |
| > 200 µM | – | – | Cn1c(CN2C(=O)CN(c3ccc(F)cc3)C2=O)nc2ccc(C(=O)N[C@H](C#N)CCCCN)cc21 |
| > 200 µM | 25 µM | – | C[C@@H](c1nc2ccc(C(=O)N[C@H](C#N)CCCCN)cc2n1C)N1C(=O)CN(c2ccc(F)cc2)C1=O |
| 160 µM | 19 µM | – | C[C@H](c1nc2ccc(C(=O)N[C@H](C#N)CCCCN)cc2n1C)N1C(=O)CN(c2ccc(Oc3ccccc3)cc2)C1=O |
| > 200 µM | 28 µM | – | CC(C)[C@@H](c1nc2ccc(C(=O)N[C@H](C#N)CCCCN)cc2n1C)N1C(=O)CN(c2ccc(Oc3ccccc3)cc2)C1=O |
| 150 µM | 7.7 µM | – | CC(C)C[C@H](c1nc2ccc(C(=O)N[C@H](C#N)CCCCN)cc2n1C)N1C(=O)CN(c2ccc(Oc3ccccc3)cc2)C1=O |
